From patent US9974726B2, “Gentle cleansing compositions with makeup removal properties” (L'OREAL, priority 2016, dated 2018) come the findings set out here.

The test relates to skin of an arm. Briefly: Hydration Test (corneometer). Format: in vivo. The conditions noted are these: n=10. Here is the method:
Each of the compositions in the table below were individually applied to the skin of an arm (n=10) and then removed with a moist cotton pad. A corneometer was used to take initial measurements, and subsequent measurements at 1, 2, and 6 hour time points.

For `CCCCCCCCCCCCOS(=O)(=O)[O-].[Na+]` [5% sodium lauryl sulfate, sodium lauryl sulfate], the “corneometer measurement, 1 hours” value (1 hour after application and removal with moist cotton pad, * = statistically significant) was determined as 34.2. Further, under “2 hours after application and removal, * = statistically significant”, the “corneometer measurement, 2 hours” value came out at 33.5. Further, the “corneometer measurement, 6 hours” value (6 hours after application and removal, * = statistically significant) came out at 32.4. In addition, the “corneometer measurement, 0 hours” value (initial measurement) was 30.7.
